# Source: ChEMBL document CHEMBL5729785, “Pyridazinones as PARP7 inhibtors” (2023)
# Molecular target: T1, Protein mono-ADP-ribosyltransferase TIPARP (Homo sapiens, UniProt Q7Z3E1)
# T1 sequence (Q7Z3E1 whole entry): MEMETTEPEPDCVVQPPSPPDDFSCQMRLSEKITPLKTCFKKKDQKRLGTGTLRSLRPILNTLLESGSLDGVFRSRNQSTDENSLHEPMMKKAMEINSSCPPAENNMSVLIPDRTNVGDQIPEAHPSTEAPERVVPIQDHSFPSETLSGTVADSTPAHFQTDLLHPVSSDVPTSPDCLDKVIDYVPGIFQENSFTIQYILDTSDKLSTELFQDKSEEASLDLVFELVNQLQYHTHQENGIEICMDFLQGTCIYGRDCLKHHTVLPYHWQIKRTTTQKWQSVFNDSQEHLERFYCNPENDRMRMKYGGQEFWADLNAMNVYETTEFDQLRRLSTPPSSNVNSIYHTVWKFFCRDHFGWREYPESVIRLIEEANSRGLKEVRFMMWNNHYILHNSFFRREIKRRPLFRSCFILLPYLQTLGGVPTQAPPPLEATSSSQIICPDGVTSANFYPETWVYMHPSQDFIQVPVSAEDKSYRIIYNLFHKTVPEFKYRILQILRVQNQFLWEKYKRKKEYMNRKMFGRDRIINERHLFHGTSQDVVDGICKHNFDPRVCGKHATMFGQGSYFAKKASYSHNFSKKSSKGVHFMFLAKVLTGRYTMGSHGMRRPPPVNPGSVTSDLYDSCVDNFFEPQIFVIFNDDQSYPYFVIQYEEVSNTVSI
# Test: Enzymatic Assay: Displacement of Probe A, a biotinylated probe binding to the TIPARP active site, was measured using a time-resolved fluorescence energy transfer (TR-FRET) assay. 20 nL of a dose response curve of each test compound was spotted in black 384-well polystyrene proxiplates (Perkin Elmer) using a Mosquito (TTP Labtech). Reactions were performed in a 8 μl volume by adding 6 μL of TIPARP and Probe A in assay buffer (20 mM HEPES pH=8, 100 mM NaCl, 0.1% bovine serum albumin, 2 mM DTT and 0.002% Tween20), incubating with test compound at 25° C. for 30 min, then adding 2 μL of ULight-anti 6×His and LANCE Eu-W1024 labeled streptavidin (Perkin Elmer). The final concentrations of TIPARP and Probe A were 6 nM and 2 nM, respectively. The final concentration of ULight-anti 6×His and LANCE Eu-W1024 labeled streptavidin were 4 nM and 0.25 nM, respectively. Reactions were incubated at 25° C. for an additional 30 min, then read on an Envision platereader equipped with a LANCE/DELFIA top mirror (Perkin Elmer) using excitation of 320 nm and emission of 615 nm and 665 nM with a […]. The ratio of the 665/615 nm emission were calculated for each well to determine the amount of complex of TIPARP and Probe Ain each well. […]
compound,measurement,value
C[C@@H](CO[C@@H]1CCN(C2CCN(c3ncc(Br)cn3)CC2)C1=O)Nc1cn[nH]c(=O)c1C(F)(F)F,IC50,< 100 nM
